Structures can show the parent of a compound that is named as a salt.
Columns and labels:
[1] = system: mice (p-phenylquinone-induced abdominal writhing); experiment: P-phenylquinone-induced abdominal writhing test in mice; format: in vivo, mouse (male Charles River, Swiss Strain); settings: Mus musculus, sc, 20 min; s.c., 20 min pretreatment; p-phenylquinone 2 mg/Kg i.p.; 8 min observation; data given for free base form; read-out: ANALGESIA MOUSE WRITHING ED50
Protocol: P-phenylquinone-induced Abdominal Writhinq Test in Mice
The methodology employed is based on that described by Sigmund et al, Proc. Soc. Exptl. Biol. 95, 729/1957, modified by Milne and Twomey, Agents and Actions, 10, 31/1980.
Male Charles River mice (Swiss Strain), 25-36 g body weight, are used. Animals are allowed food and water ad libitum and are randomized into groups of 10 prior to experimentation. Test compounds are dissolved in either distilled water or distilled water plus 0.1 M AMS, and administered by the subcutaneous route in a final volume of 10 ml/Kg. Control animals receive 10 ml/Kg of the appropriate vehicle alone. Following a pretreatment period of 20 min., mice are injected intraperitoneally with p-phenylquinone, 2 mg/Kg at 37° C. in a final volume of 10 mg/Kg. Next, the mice are placed, in a groups of 3, in a compartmented perspex box maintained at room temperature and are observed for a period of 8 min. During this period the number of abdominal writhing responses per animal are recorded where writhing consists of an intermittent contraction of the abdomen associated with hind leg extension.
The degree of antinociceptive protection afforded by the test compound is determined as the mean number of writhing responses observed in the treated group (T) expressed as a percentage of the mean number of writhing responses in the control group (C) according to the following formula:
[1-(T/C)]×100%=% graded protection.

[2] = system: mice (tail-flick, heat source reaction time); experiment: Mouse tail-flick test; format: in vivo, mouse (male Charles River); settings: sc, 0.5 h, s.c., 30 min after dosing, percent number of mice doubling the initial time, data given for free base form, read-out: ANALGESIA MOUSE TAIL-FLICK ED50
Protocol: Mouse Tail-flick test (Modified from the procedure published by D Amour et al., J. Pharm. Exptl. Ther.72, 74/1941).
Male Charles River mice, average weight 26g, are used. Selection is carried out before beginning of experiments: only mice whose reaction time is less than 8 sec are used. They are randomly distributed into groups of 10 and dosed with compounds under test, with positive and negative controls being included.
Compounds under test are administered subcutaneously in isotonic saline in a volume of 20 ml. Kg^-1. 30 min later mice are placed again under heat source (Socrel apparatus) and reaction time is recorded.
The analgesic activity of the test compound is expressed as the percent number of mice doubling the initial time within a group. [formula]

O=C1CCCc2cc(CC(=O)N3CCc4sccc4C3CN3CCCCC3)ccc21 (single isomer, unassigned) [Example 5, (-)4-(piperidin-1-yl)methyl-5-(1-oxo-3,4-dihydro-(2H)-napht-6-yl)acetyl-4,5,6,7-tetrahydrothieno [3,2-c]pyridine L(+) tartrate]
ED50 [1]: 0.009 mg/kg
ED50 [2]: 0.045 mg/kg

O=C1CCCc2cc(CC(=O)N3CCc4ccccc4C3CN3CCCC3)ccc21 (stereo not shown) [Example 1, 1-(pyrrolidin-1-yl)methyl-2-(1-oxo-3,4-dihydro-(2H)-napht-6-Yl)acetyl-1,2,3,4-tetrahydroisoquinoline hydrochloride]
ED50 [1]: 0.036 mg/kg
ED50 [2]: 0.114 mg/kg

O=C1CCCc2cc(CC(=O)N3CCc4ccccc4C3CN3CCCCC3)ccc21 (stereo not shown) [Example 2, 1-(piperidin-1-yl)methyl-2-(1-oxo-3,4-dihydro-(2H)-napht-6-yl)acetyl-1,2,3,4-tetrahydroisoquinoline hydrochloride]
ED50 [1]: 0.038 mg/kg
ED50 [2]: 0.206 mg/kg

O=C1CCCc2cc(CC(=O)N3CCc4sccc4C3CN3CCCC3)ccc21 (stereo not shown) [Example 3, 4-(pyrrolidin-1-yl)methyl-5-(1-oxo-3,4-dihydro-(2H)-napht-6-yl)acetyl-4,5,6,7-tetrahydrothieno [3,2-c] pyridine hydrochloride]
ED50 [1]: 0.023 mg/kg
ED50 [2]: 0.086 mg/kg

O=C1CCCc2cc(CC(=O)N3CCc4sccc4C3CN3CCCCC3)ccc21 (stereo not shown) [Example 4, 4-(piperidin-1-yl)methyl-5-(1-oxo-3,4-dihydro-(2H)-napht-6-Yl)acetyl-4,5,6,7-tetrahydrothieno [3,2-c]pyridine hydrochloride hemihydrate]
ED50 [1]: 0.017 mg/kg
ED50 [2]: 0.174 mg/kg
